Laboratory results taken from ChEMBL document CHEMBL5380793, “Structure-Activity Relationship of Novel Pyrimidine Derivatives with Potent Inhibitory Activities against Mycobacterium tuberculosis” (J Med Chem, 2023).
Values after ≈ are worked out from the molar mass of the structure shown.

How the values were obtained:
[1] = test system: Mycobacterium tuberculosis; assay: Antitubercular activity against marker free autoluminescent Mycobacterium tuberculosis H37Ra assessed as reduction in relative light unit measured once a day for 6 days; assay type: functional; conditions: 144 h, time 6 day
[2] = Cytotoxicity against human HepG2 cells assessed as inhibition of cell growth incubated for 48 hrs by MTT assay; assay type: toxicity, cell-based

SMILES	MIC [1] [µg/mL]	IC50 at 48 h [2] [µM]
Clc1cnc(-c2ccccc2)nc1Nc1ccc(N2CCNCC2)cc1OC1CCCC1	1 (≈ 2.22 µM)	2.7
Cc1cc(Nc2nc(NC3CC3)ncc2Cl)c(OC(C)C)cc1C1CCNCC1	4 (≈ 9.62 µM)	7.6
CCc1ncc(Cl)c(Nc2cc(C)c(C3CCNCC3)cc2OC(C)C)n1	8 (≈ 20.6 µM)	8
CC(C)COc1cc(N2CCNCC2)ccc1Nc1nc(-c2ccccc2)ncc1Cl	1 (≈ 2.28 µM)	2.6
Cc1cc(Nc2nc(Nc3cccc(F)c3)ncc2Cl)c(OC(C)C)cc1C1CCNCC1	0.5 (≈ 1.06 µM)	1.9
Cc1cc(Nc2cc(-c3ccccc3)nc3ccnn23)c(OC(C)C)cc1C1CCNCC1	4 (≈ 9.06 µM)	4.1
CC(C)Oc1cc(N2CCNCC2)ccc1Nc1nc(-c2ccccc2)ncc1Cl	1 (≈ 2.36 µM)	2.9
Cc1cc(Nc2nc(-c3ccccc3)ncc2F)c(OC(C)C)cc1C1CCNCC1	0.5 (≈ 1.19 µM)	2.8
Cc1cc(Nc2cc(-c3ccccc3)nc3ncnn23)c(OC(C)C)cc1C1CCNCC1	4 (≈ 9.04 µM)	4.4
Cc1cc(Nc2nc(-c3ccncc3)ncc2Cl)c(OC(C)C)cc1C1CCNCC1	2 (≈ 4.57 µM)	2
CNC(=O)c1ccc(-c2ncc(Cl)c(Nc3cc(C)c(C4CCNCC4)cc3OC(C)C)n2)cc1	2 (≈ 4.05 µM)	2
Cc1cc2nc(-c3ccccc3)cc(Nc3cc(C)c(C4CCNCC4)cc3OC(C)C)n2n1	8 (≈ 17.6 µM)	4.7
Cc1cc(Nc2nc(-c3ccccc3CO)ncc2Cl)c(OC(C)C)cc1C1CCNCC1	4 (≈ 8.57 µM)	2
Cc1cc(Nc2nc(NC3CCCC3)ncc2Cl)c(OC(C)C)cc1C1CCNCC1	1 (≈ 2.25 µM)	3.8
Cc1cc(Nc2nc(-c3ccc(C(C)(C)C)cc3)ncc2Cl)c(OC(C)C)cc1C1CCNCC1	1 (≈ 2.03 µM)	2.3
Cc1cc(Nc2ccnc(-c3ccccc3)n2)c(OC(C)C)cc1C1CCNCC1	4 (≈ 9.94 µM)	1.9
Cc1cc(Nc2nc(Cl)ncc2Cl)c(OC(C)C)cc1C1CCNCC1	16 (≈ 40.5 µM)	16
CCOc1cc(N2CCNCC2)ccc1Nc1nc(-c2ccccc2)ncc1Cl	2 (≈ 4.88 µM)	2.5
Cc1cc(Nc2nc(-c3ccccc3)nc3ccsc23)c(OC(C)C)cc1C1CCNCC1	2 (≈ 4.36 µM)	1.7
Cc1cc(NC(=S)Nc2ccc(F)cc2)c(OC(C)C)cc1C1CCNCC1	> 64	> 20
CCC(C)Oc1cc(N2CCNCC2)ccc1Nc1nc(-c2ccccc2)ncc1Cl (stereo not given)	1 (≈ 2.28 µM)	2.3
Cc1cc(Nc2nc(Nc3ccc(Cl)cc3Cl)ncc2Cl)c(OC(C)C)cc1C1CCNCC1	2 (≈ 3.84 µM)	2.5
Cc1cc(Nc2nc(Nc3cccc(C(F)(F)F)c3)ncc2Cl)c(OC(C)C)cc1C1CCNCC1	1 (≈ 1.92 µM)	1.1
Cc1cc(Nc2nc(-c3cccnc3)ncc2Cl)c(OC(C)C)cc1C1CCNCC1	2 (≈ 4.57 µM)	1.7
Cc1cc(Nc2nc(-c3ccc(CO)cc3)ncc2Cl)c(OC(C)C)cc1C1CCNCC1	2 (≈ 4.28 µM)	2
CC(C)CCOc1cc(N2CCNCC2)ccc1Nc1nc(-c2ccccc2)ncc1Cl	1 (≈ 2.21 µM)	2.1
COc1cccc(Nc2ncc(Cl)c(Nc3cc(C)c(C4CCNCC4)cc3OC(C)C)n2)c1	1 (≈ 2.07 µM)	1.3
Cc1cc(Nc2cc(C(F)(F)F)nc(-c3ccccc3)n2)c(OC(C)C)cc1C1CCNCC1	2 (≈ 4.25 µM)	1.3

SMILES	MIC [1] [µg/mL]	IC50 at 48 h [2] [µM]
Cc1cc(Nc2nc(-c3cccc(CO)c3)ncc2Cl)c(OC(C)C)cc1C1CCNCC1	4 (≈ 8.57 µM)	4
Cc1cc(Nc2nc(-c3ccc(C(C)C)cc3)ncc2Cl)c(OC(C)C)cc1C1CCNCC1	1 (≈ 2.09 µM)	2.2
Cc1cc(Nc2nc(-c3ccc4ccccc4c3)ncc2Cl)c(OC(C)C)cc1C1CCNCC1	0.5 (≈ 1.03 µM)	0.5
Cc1cc(Nc2nc(-c3cccc(O)c3)ncc2Cl)c(OC(C)C)cc1C1CCNCC1	2 (≈ 4.42 µM)	1.3
Cc1cc(Nc2nc(Nc3cccc4ccccc34)ncc2Cl)c(OC(C)C)cc1C1CCNCC1	2 (≈ 3.98 µM)	2.2
Cc1cc(NC(=O)Nc2ccc(F)cc2)c(OC(C)C)cc1C1CCNCC1	> 64	> 20
Cc1cc(Nc2nc(-c3ccc4c(c3)OCCO4)ncc2Cl)c(OC(C)C)cc1C1CCNCC1	1 (≈ 2.02 µM)	1
Cc1cc(Nc2nc(-c3ccc4c(c3)OCO4)ncc2Cl)c(OC(C)C)cc1C1CCNCC1	1 (≈ 2.08 µM)	1
Clc1cnc(-c2ccccc2)nc1Nc1ccc(N2CCNCC2)cc1	8 (≈ 21.9 µM)	3.3
Clc1cnc(-c2ccccc2)nc1Nc1ccc(N2CCNCC2)cc1OCC1CCCCC1	2 (≈ 4.18 µM)	2.9
COc1ccccc1Nc1ncc(Cl)c(Nc2cc(C)c(C3CCNCC3)cc2OC(C)C)n1	2 (≈ 4.15 µM)	2
Cc1cc(Nc2cc(C)c(C3CCNCC3)cc2OC(C)C)nc(-c2ccccc2)n1	4 (≈ 9.6 µM)	1.9
Cc1cc(Nc2nc(-c3ccccc3)nc3ccccc23)c(OC(C)C)cc1C1CCNCC1	2 (≈ 4.42 µM)	2.8
Cc1cc(Nc2nc(-c3cnc4ccccc4c3)ncc2Cl)c(OC(C)C)cc1C1CCNCC1	1 (≈ 2.05 µM)	1
COc1cc(N2CCNCC2)ccc1Nc1nc(-c2ccccc2)ncc1Cl	4 (≈ 10.1 µM)	2.7
CCCc1ccc(-c2ncc(Cl)c(Nc3cc(C)c(C4CCNCC4)cc3OC(C)C)n2)cc1	1 (≈ 2.09 µM)	2.2
Cc1cc(C)cc(-c2ncc(Cl)c(Nc3cc(C)c(C4CCNCC4)cc3OC(C)C)n2)c1	1 (≈ 2.15 µM)	2.9
Cc1cc(Nc2nc(Nc3cccc(Cl)c3)ncc2Cl)c(OC(C)C)cc1C1CCNCC1	1 (≈ 2.06 µM)	2
Cc1cc(Nc2nc(C3CC3)ncc2Cl)c(OC(C)C)cc1C1CCNCC1	2 (≈ 4.99 µM)	2
Cc1cc(Nc2nc(-c3cccc4ccccc34)ncc2Cl)c(OC(C)C)cc1C1CCNCC1	0.5 (≈ 1.03 µM)	0.5
Clc1cnc(-c2ccccc2)nc1Nc1ccc(N2CCNCC2)cc1OC1CCCCC1	2 (≈ 4.31 µM)	3.1
Cc1ccc(-c2ncc(Cl)c(Nc3cc(C)c(C4CCNCC4)cc3OC(C)C)n2)cc1	1 (≈ 2.22 µM)	2.5
CCCOc1cc(N2CCNCC2)ccc1Nc1nc(-c2ccccc2)ncc1Cl	1 (≈ 2.36 µM)	2.1
CCCCOc1cc(N2CCNCC2)ccc1Nc1nc(-c2ccccc2)ncc1Cl	1 (≈ 2.28 µM)	2.6
Cc1cc(Nc2nc(-c3ccc(Cl)cc3)ncc2Cl)c(OC(C)C)cc1C1CCNCC1	0.5 (≈ 1.06 µM)	2.3
Cc1cc(Nc2nc(Nc3ccccc3F)ncc2Cl)c(OC(C)C)cc1C1CCNCC1	1 (≈ 2.13 µM)	1.9
Cc1cc(Nc2nc(N)ncc2Cl)c(OC(C)C)cc1C1CCNCC1	32 (≈ 85.1 µM)	> 10
